Laboratory results taken from ChEMBL document CHEMBL5042472, “Design, Synthesis, and Biological Evaluation of a Novel Photocaged PI3K Inhibitor toward Precise Cancer Treatment” (J Med Chem, 2021).
Activity calls are given as the source filed them. No cut-off for these calls is given here.

Legend:
[1] = target: Phosphatidylinositol 4,5-bisphosphate 3-kinase catalytic subunit beta isoform (Homo sapiens, UniProt P42338); test: Inhibition of PI3K beta (unknown origin) using PIP2 as substrate incubated in dark at room temperature for 1 hr in presence of ATP by ADP-Glo luminescent assay
[2] = Apparent permeability across basolateral to apical side in human Caco-2 cells at 10 uM incubated for 2 hrs by LC-MS/MS analysis; format: ADME, cell-based
HGC-27 [3] = test: Inhibition of colony formation in human HGC-27 cells at 100 nM incubated for 24 hrs by crystal violet staining based assay; format: functional, cell-based
HGC-27 [4] = test: Inhibition of PI3K/AKT signalling pathway in human HGC-27 cells assessed as downregulation of AKT phosphorylation at Ser473 residue at 100 nM incubated for 24 hrs under dark condition by Western blot; format: cell-based
BGC-823 = test: Antiproliferative activity against human BGC-823 cells assessed as reduction in cell viability incubated in dark for 96 hrs by MTT assay; format: functional, cell-based; conditions: BGC-823, 96 h
HGC-27 [5] = test: Inhibition of PI3K/AKT signalling pathway in human HGC-27 cells assessed as downregulation of SRP6 phosphorylation at 100 nM incubated for 24 hrs under dark condition by Western blot; format: cell-based
[6] = Stability in dog liver microsomes assessed as half life at 1 uM in presence of NADPH measured upto 120 min by LC-MS/MS analysis; format: ADME, Canis lupus familiaris, Microsome
HGC-27 [7] = test: Inhibition of PI3K/AKT signalling pathway in human HGC-27 cells assessed as downregulation of AKT phosphorylation at Ser473 residue at 100 nM irradiated with 365 nm UV light for 5 mins and incubated for 24 hrs by Western blot; format: cell-based
MG-63 [8] = test: Antiproliferative activity against human MG-63 cells assessed as reduction in cell viability incubated in dark for 96 hrs by MTT assay; format: functional, cell-based; conditions: MG-63, 96 h
HCT-116 [9] = test: Inhibition of colony formation in human HCT-116 cells irradiated with 365 nm of UV light for 5 min at 100 nM incubated for 24 hrs by crystal violet staining based assay; format: functional, cell-based
AGS = test: Antiproliferative activity against human AGS cells assessed as reduction in cell viability incubated in dark for 96 hrs by MTT assay; format: functional, cell-based
Homo sapiens [10] = organism: Homo sapiens; test: Anticancer activity against KOCO-096 patient derived colon cancer organoid assessed as inhibition of cell growth irradiated with 365 nm of UV light for 5 mins and incubated for 120 hrs; format: functional, tissue-based
HCT-116 [11] = test: Anticancer activity against fluorescent labeled human HCT-116 cells xenografted in yolk of zebra embryo assessed as reduction in tumor size by measuring fluorescence density at 31.3 nM irradiated with 365 nm of UV light incubated for 48 hrs by fluorescence microscopic analysis; format: functional, cell-based
HGC-27 [12] = test: Inhibition of PI3K/AKT signalling pathway in human HGC-27 cells assessed as downregulation of SRP6 phosphorylation at 100 nM irradiated with 365 nm UV light for 5 mins and incubated for 24 hrs by Western blot; format: cell-based
Homo sapiens [13] = organism: Homo sapiens; test: Anticancer activity against KOES-007 patient derived stomach cancer organoid assessed as inhibition of cell growth irradiated with 365 nm of UV light for 2 mins and incubated for 120 hrs; format: functional, tissue-based
HCT-116 [14] = test: Antiproliferative activity against human HCT-116 cells assessed as reduction in cell viability irradiated with 365 nm of UV for 5 mins and incubated in dark for 96 hrs by MTT assay; format: functional, cell-based; conditions: HCT-116, light or radiation study
[15] = Plasma protein binding in dog at 1 uM by LC-MS/MS analysis; format: ADME, cell-free, Canis lupus familiaris; conditions: read-out: PPB (converted)
HGC-27 [16] = test: Induction of cell cycle arrest in human HGC-27 cells assessed as accumulation at G0/G1 phase at 100 nM incubated for 24 hrs by flow cytometry; format: functional, cell-based
HCT-116 [17] = test: Inhibition of PI3K/AKT signalling pathway in human HCT-116 cells assessed as downregulation of […] phosphorylation at 100 nM incubated for 24 hrs under dark condition by Western blot; format: cell-based
HCT-116 [18] = test: Induction of apoptosis in human HCT-116 cells assessed as increase in number of cells in sub-G0 phase at 100 nM incubated for 24 hrs by flow cytometry; format: functional, cell-based
HGC-27 [19] = test: Antiproliferative activity against human HGC-27 cells assessed as reduction in cell viability irradiated with 365 nm of UV for 5 mins and incubated in dark for 96 hrs by MTT assay; format: functional, cell-based; conditions: HGC-27, light or radiation study
HGC-27 [20] = test: Antiproliferative activity against human HGC-27 cells assessed as reduction in cell viability incubated in dark for 96 hrs by MTT assay; format: functional, cell-based; conditions: HGC-27, 96 h
[21] = target: Phosphatidylinositol 4,5-bisphosphate 3-kinase catalytic subunit alpha isoform (Homo sapiens, UniProt P42336); test: Inhibition of PI3K alpha (unknown origin) using PIP2 as substrate incubated in dark at room temperature for 1 hr in presence of ATP by ADP-Glo luminescent assay
HGC-27 [22] = test: Inhibition of colony formation in human HGC-27 cells irradiated with 365 nm of UV light for 5 min at 100 nM incubated for 24 hrs by crystal violet staining based assay; format: functional, cell-based
MG-63 [23] = test: Antiproliferative activity against human MG-63 cells assessed as reduction in cell viability irradiated with 365 nm of UV for 5 mins and incubated in dark for 96 hrs by MTT assay; format: functional, cell-based; conditions: MG-63, light or radiation study
MGC-803 = test: Antiproliferative activity against human MGC-803 cells assessed as reduction in cell viability incubated in dark for 96 hrs by MTT assay; format: functional, cell-based; conditions: MGC-803, 96 h
HCT-116 [24] = test: Induction of cell cycle arrest in human HCT-116 cells assessed as accumulation at G0/G1 phase at 100 nM irradiated with 365 nm UV light for 5 mins incubated for 24 hrs by flow cytometry; format: functional, cell-based
HCT-116 [25] = test: Inhibition of PI3K/AKT signalling pathway in human HCT-116 cells assessed as downregulation of AKT phosphorylation at […] residue at 100 nM irradiated with 365 nm UV light for 5 mins and incubated for 24 hrs by Western blot; format: cell-based
HCT-116 [26] = test: Inhibition of colony formation in human HCT-116 cells at 100 nM incubated for 24 hrs by crystal violet staining based assay; format: functional, cell-based
[27] = Stability in rat liver microsomes assessed as half life at 1 uM in presence of NADPH by LC-MS/MS analysis; format: ADME, Microsome

Phosphatidylinositol 4,5-bisphosphate 3-kinase catalytic subunit alpha isoform, sequence (P42336 whole entry, canonical isoform): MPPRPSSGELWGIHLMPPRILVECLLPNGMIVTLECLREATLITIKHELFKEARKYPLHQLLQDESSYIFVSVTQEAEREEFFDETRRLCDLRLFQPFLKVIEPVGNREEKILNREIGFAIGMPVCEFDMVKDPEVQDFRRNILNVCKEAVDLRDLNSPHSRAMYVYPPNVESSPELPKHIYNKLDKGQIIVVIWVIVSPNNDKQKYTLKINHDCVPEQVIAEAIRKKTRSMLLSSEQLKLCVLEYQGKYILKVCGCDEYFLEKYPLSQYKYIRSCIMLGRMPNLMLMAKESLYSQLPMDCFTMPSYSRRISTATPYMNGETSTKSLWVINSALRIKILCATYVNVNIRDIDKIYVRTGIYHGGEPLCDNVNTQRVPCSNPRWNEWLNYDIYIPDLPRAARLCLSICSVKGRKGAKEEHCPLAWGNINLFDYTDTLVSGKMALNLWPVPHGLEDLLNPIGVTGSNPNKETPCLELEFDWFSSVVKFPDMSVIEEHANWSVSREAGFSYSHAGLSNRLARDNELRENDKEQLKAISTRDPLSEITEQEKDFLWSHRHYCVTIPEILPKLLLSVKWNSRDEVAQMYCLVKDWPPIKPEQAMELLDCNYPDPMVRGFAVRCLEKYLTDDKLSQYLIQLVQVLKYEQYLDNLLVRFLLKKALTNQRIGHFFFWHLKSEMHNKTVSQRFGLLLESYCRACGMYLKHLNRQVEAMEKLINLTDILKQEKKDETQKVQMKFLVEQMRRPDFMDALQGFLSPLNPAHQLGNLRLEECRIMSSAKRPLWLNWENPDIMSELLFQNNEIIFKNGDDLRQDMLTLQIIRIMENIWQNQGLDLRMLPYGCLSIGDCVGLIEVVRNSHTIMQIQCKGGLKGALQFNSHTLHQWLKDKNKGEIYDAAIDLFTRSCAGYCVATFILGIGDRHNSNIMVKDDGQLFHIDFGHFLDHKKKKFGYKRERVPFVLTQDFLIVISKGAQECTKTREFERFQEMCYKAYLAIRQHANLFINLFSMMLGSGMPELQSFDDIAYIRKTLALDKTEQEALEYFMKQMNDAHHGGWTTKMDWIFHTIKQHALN
Phosphatidylinositol 4,5-bisphosphate 3-kinase catalytic subunit beta isoform, sequence (P42338 whole entry, canonical isoform): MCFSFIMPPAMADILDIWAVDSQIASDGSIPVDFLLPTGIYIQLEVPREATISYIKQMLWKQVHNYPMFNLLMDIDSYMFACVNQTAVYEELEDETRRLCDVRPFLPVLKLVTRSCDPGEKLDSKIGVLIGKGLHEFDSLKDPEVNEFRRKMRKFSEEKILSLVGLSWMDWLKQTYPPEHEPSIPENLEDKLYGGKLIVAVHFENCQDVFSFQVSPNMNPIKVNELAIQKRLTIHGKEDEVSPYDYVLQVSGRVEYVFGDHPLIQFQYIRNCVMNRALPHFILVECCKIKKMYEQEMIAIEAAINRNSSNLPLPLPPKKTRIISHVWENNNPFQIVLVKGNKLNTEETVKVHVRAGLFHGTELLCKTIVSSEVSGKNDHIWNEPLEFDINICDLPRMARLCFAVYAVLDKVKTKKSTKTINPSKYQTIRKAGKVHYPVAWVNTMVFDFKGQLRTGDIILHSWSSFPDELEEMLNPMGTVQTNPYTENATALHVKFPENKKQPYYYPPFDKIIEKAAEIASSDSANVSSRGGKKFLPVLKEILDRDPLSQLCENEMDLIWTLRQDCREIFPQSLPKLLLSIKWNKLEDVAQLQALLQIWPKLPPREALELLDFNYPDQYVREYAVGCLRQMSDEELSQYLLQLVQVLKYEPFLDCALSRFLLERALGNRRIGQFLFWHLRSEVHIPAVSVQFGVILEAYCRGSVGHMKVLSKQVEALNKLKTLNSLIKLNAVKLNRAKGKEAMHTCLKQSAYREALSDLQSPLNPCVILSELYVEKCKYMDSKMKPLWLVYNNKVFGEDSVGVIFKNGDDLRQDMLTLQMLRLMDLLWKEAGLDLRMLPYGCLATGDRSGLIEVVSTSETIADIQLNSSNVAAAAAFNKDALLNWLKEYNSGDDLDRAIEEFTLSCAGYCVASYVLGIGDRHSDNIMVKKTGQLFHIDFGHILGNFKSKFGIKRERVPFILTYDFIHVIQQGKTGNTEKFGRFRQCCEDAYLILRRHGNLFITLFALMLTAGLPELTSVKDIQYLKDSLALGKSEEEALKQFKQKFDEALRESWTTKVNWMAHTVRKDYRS

For `COc1cc(CN(c2cc(-c3cc(OC4CCOCC4)c4ncnc(C)c4c3)cnc2OC)S(=O)(=O)c2ccc(F)cc2F)c([N+](=O)[O-])cc1OC`, the IC50 [1] was 838 nM, the Papp B→A at 2 h, 10 µM [2] was 1.95 ×10⁻⁶ cm/s and the inhibition (HGC-27 [3]) was “inactive”. For the same compound, the inhibition (HGC-27 [4]) was “inactive”, the IC50 (BGC-823) was 2360 nM and the inhibition (HGC-27 [5]) was “inactive”. The half-life at 1 µM [6] was 4.62 min, the inhibition (HGC-27 [7]) was “Active” and the IC50 (MG-63 [8]) was 1840 nM. The inhibition (HCT-116 [9]) was “Active”, the IC50 (AGS) was 924 nM and the Activity (Homo sapiens [10]) was “Dose-Dependent Effect”. The Activity (HCT-116 [11]) was “Active”, the inhibition (HGC-27 [12]) was “Active” and the Activity (Homo sapiens [13]) was “Active”. The IC50 (HCT-116 [14]) was 81 nM, the fraction unbound at 1 µM [15] was 0.005 and the Activity (HGC-27 [16]) was “inactive”. For the same compound, the inhibition (HCT-116 [17]) was “inactive”, the inhibition (HCT-116 [18]) was “Active” and the IC50 (HGC-27 [19]) was 13.8 nM. For the same compound, the IC50 (HGC-27 [20]) was 248 nM, the IC50 [21] was 343 nM and the inhibition (HGC-27 [22]) was “Active”. For the same compound, the IC50 (MG-63 [23]) was 142 nM, the IC50 (MGC-803) was 1740 nM and the Activity (HCT-116 [24]) was “inactive”. For the same compound, the inhibition (HCT-116 [25]) was “Active”, the inhibition (HCT-116 [26]) was “inactive” and the half-life at 1 µM [27] was 1.82 min.
